The target in test [1] is T1, FKBP25 (Homo sapiens, UniProt Q00688).
T1 sequence (Q00688 1-224): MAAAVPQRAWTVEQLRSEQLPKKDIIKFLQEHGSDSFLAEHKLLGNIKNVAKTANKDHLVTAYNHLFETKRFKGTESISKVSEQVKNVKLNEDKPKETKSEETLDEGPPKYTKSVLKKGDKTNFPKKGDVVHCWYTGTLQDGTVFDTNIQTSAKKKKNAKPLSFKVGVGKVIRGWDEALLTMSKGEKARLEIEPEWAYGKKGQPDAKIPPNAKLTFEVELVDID
To be noted: FKBP25, rotamase assay; cited from earlier work.

The target in test [2] is T1, FKBP25. In words: FKBP25 microparticle / rapamycin-aminodextran agglutination assay (cross-reactivity). The test is classed as binding. The protocol:
A first working reagent (R1 reagent) was prepared by making 175 mM PIPES buffer, pH 7.4. To this was added rapamycin-aminodextran conjugate to give a concentration of 400 ng/mL. To this was also added polyacrylic acid to give a concentration of 1.3%.
A second working reagent (R2 reagent) was prepared as described in Example 12 and used at final concentration of 0.14% (w/v) in 50 mM MOPS buffer at pH 7.9.
A stock solution of rapamycin was made (100 μg/mL) in DMSO. Calibrators were prepared from the stock by making solution of 50, 100 and 200 ng/mL of rapamycin in 0.9% saline solution.
An assay was performed using a Hitachi 917 automated analyzer (Roche Diagnostics Corporation, Indianapolis) using a 35 μL sample volume, 180 μL of the first working reagent and 80 μL of the second working reagent (measured OD at 800 nm).
Known quantities of tacrolimus were then assayed as above. By comparing the observed reading from the rapamycin curve obtained to the actual amount of tacrolimus in the samples assayed, tacrolimus cross-reactivity was determined to be 7% in this assay. That is, a sample containing 1000 ng/ml tacrolimus gave a reading from the curve of 70 ng/ml rapamycin. Cross-reactivity is thus (70/1000)×100%=7%.

The target of test [3] is FKBP14. To be noted: cited from earlier work.

The values below come from patent US7642059B2, “Single receptor assays for immunosuppressive drugs” (Roche Diagnostics Operations, Inc., priority 2005, dated 2010).

The Ki is the dissociation constant of the complex between target and ligand, obtained from inhibition or displacement. A word on the Kd: it is the free concentration of one partner at which half of the binding sites on the other are occupied at equilibrium, for simple one-to-one binding.

In the case of `C=CC[C@@H]1/C=C(\C)C[C@H](C)C[C@H](OC)[C@H]2O[C@@](O)(C(=O)C(=O)N3CCCC[C@H]3C(=O)O[C@H](/C(C)=C/[C@@H]3CC[C@@H](O)[C@H](OC)C3)[C@H](C)[C@@H](O)CC1=O)[C@H](C)C[C@@H]2OC` [tacrolimus], in test [1], the inhibition constant Ki is 200 nM. In addition, in test [2] (read from rapamycin curve, Hitachi 917, OD at 800 nm), the cross-reactivity was 7%. The “reading from the curve as rapamycin” value in test [2] (sample containing 1000 ng/ml tacrolimus) came to 70 ng/mL. Further, in test [3], the Kd is 1.8 nM and the “fold lower Kd for tacrolimus than sirolimus” value is “about 20 fold”.
Take `CO[C@H]1C[C@@H]2CC[C@@H](C)[C@@](O)(O2)C(=O)C(=O)N2CCCC[C@H]2C(=O)O[C@H]([C@H](C)C[C@@H]2CC[C@@H](O)[C@H](OC)C2)CC(=O)[C@H](C)/C=C(\C)[C@@H](O)[C@@H](OC)C(=O)[C@H](C)C[C@H](C)/C=C/C=C/C=C/1C` [rapamycin]: the inhibitory constant (Ki) in test [1] is 0.9 nM.
